Broadly, the MIC is the lowest concentration that inhibits growth of the organism.

SMILES strings stand for the structures. Values after ≈ are worked out from the molar mass of the structure shown. Where only a bound is given, the exact number is not on record here.

For five compounds, MIC results are on record in ChEMBL document CHEMBL4765252, “Design, synthesis, and biological evaluation of novel 4H-chromen-4-one derivatives as antituberculosis agents against multidrug-resistant tuberculosis” (Eur J Med Chem, 2020).

What all share (format): functional
Test [1] concerns Mycobacterium tuberculosis. Kind of test: Antitubercular activity against isoniazid, rifampicin, fluoroquinolones-resistant Mycobacterium tuberculosis assessed as inhibition of bacterial growth incubated for 6 days by MABA assay. As to conditions: 144 h, time 6 day. A general note: Alamar Blue is a resazurin reagent that responds to reducing activity.
Test [2] concerns Mycobacterium tuberculosis. Kind of test: Antitubercular activity against INH, SM, RFP, EMB, PAS, Prothionamide 1321, Capreomycin-resistant Mycobacterium tuberculosis 14862 assessed as inhibition of bacterial growth.
Test [3] relates to Mycobacterium tuberculosis. Kind of test: Antitubercular activity against INH, SM, RFP, EMB, RBT, PAS, OLFX-resistant Mycobacterium tuberculosis 13946 assessed as inhibition of bacterial growth.

In the case of `CCOC(=O)c1c(NC(=O)c2c(F)c(F)c(F)c(F)c2F)sc2c1CCN(CC)C2`, in test [1], the MIC stood at 0.2 µM (≈ 0.0897 µg/mL). With `O=c1cc(-c2ccc(O)cc2)oc2ccc(O)c(CN3CCCC3)c12`, the values for the MIC in test [2] and in test [3] were 3.82 µg/mL (≈ 11.3 µM) and 3.81 µg/mL (≈ 11.3 µM), respectively.

With `O=c1cc(-c2ccc(O)cc2)oc2ccc(O)c(CN3CCC3)c12`, the values for the MIC in test [2] and in test [3] were 1.64 µg/mL (≈ 5.08 µM) and 1.76 µg/mL (≈ 5.43 µM), respectively. For the compound `NNC(=O)c1ccncc1` [ISONIAZID], the values for the MIC in test [2] and in test [3] were over 10 µg/mL and 2.38 µg/mL (≈ 17.3 µM), respectively. On to `CO[C@H]1/C=C/O[C@@]2(C)Oc3c(C)c(O)c4c(O)c(c(/C=N/N5CCN(C)CC5)c(O)c4c3C2=O)NC(=O)/C(C)=C\C=C\[C@H](C)[C@H](O)[C@@H](C)[C@@H](O)[C@@H](C)[C@H](OC(C)=O)[C@@H]1C` [RIFAMPIN], for which the MIC in test [2] and in test [3] was over 10 µg/mL throughout.
